Laboratory results: EP0088621A2, “Compositions for use in accelerating onset of sleep” (MASSACHUSETTS INSTITUTE OF TECHNOLOGY, priority 1982, dated 1983)

Design: species or system Normal adult volunteers
Conditions: in vivo
Protocol: Normal adult volunteers consumed 1 g of tryptophan; with or without 10 g of glucose; blood samples were assayed for tryptophan, LNAA, and their ratio after various intervals. Control subjects received only the tryptophan. The results are shown in Table I, 1 hour after administration.

In the case of `OC[C@H]1OC(O)[C@H](O)[C@@H](O)[C@@H]1O` (stereo partly shown) [glucose], the “increase of the plasma tryptophan/LNAA ratio by glucose” value is reported as 40-50%.
